Assay results as given in patent publication US9504672B2, “Compositions and methods for treating or preventing pneumovirus infection and associated diseases” (MicroDose Therapeutx, Inc., priority 2012, dated 2016).
≈ marks a conversion by molar mass, not a printed value. Like-named read-outs stand apart in the source and are kept apart here.

Columns and labels:
[1] = human, in vivo
Excerpt: In summary, the MicroDose Inhaler operation comprises the drug powder contained in a protective blister until delivery. The blister is pierced externally and then placed in contact with a piezoelectric vibrator within the MicroDose Inhaler. When the patient inhales, an airflow sensor automatically turns on the piezo which provides energy to deaggregate the particles of powder and aerosolizes them into the inhalation airstream, providing synchronized delivery. The MicroDose Inhaler was triggered by pressure drop and programmed to produce a series of brief aerosol bursts of predetermined duration within the range of 0.1 to 2.0 seconds, preferably 0.1 seconds, early during each inhalation cycle and for 16 consecutive breaths. The studies were conducted as follows:
Study 3: A Double-Blind, Randomized, 3 Period Crossover, Single Ascending Dose Study to Assess the Safety and Tolerability of Inhaled MDT-637 P3 in Subjects with Intermittent or Mild-to-Moderate Persistent Asthma (Asthma Trial)
The primary objective of Study 3 was to assess the safety and tolerability of MDT-637 P3 when inhaled by subjects with Intermittent, or Mild-to-Moderate Persistent, Asthma. A secondary objective of Study 3 was to determine the rate and extent of systemic absorption of MDT-637 and trough nasal wash MDT-637 drug concentrations following dry powder inhalation dosing.
Each subject was dosed on 3 separate days during the study. Each subject received an initial dose of placebo (Period 1), followed by random allocation at Period 2 to a single dose of nasally inhaled MDT-637 P3 or double blind placebo. After an observation and furlough period, subjects returned for Period 3 to receive three doses of study drug (MDT-637 P3 or placebo) over a single day as listed below. The study consisted of 5 visits: Visit 1 (Screening), Visits 2, 3 and 4 (Dosing), and Visit 5 (Follow up); subjects were furloughed from the clinic for 6 up to 14 days between Visits 3 and 4 and 7-8 days between Visit 4 and 5. Subjects who met all of the inclusion criteria and none of the exclusion criteria (Table 19, FIG. 29) at Visit 1 were eligible to return for Visit 2 within 42 days of screening. Subjects were admitted to the study center twice, once for Visit 2 and again for Visit 4. Visit 5, was a safety follow up (outpatient) visit.
The doses of MDT-637 P3 were determined based on previous clinical experience in Study 1. Both placebo and active were administered as a dry powder for nasal inhalation via a face mask using a MicroDose Inhaler device. At Visit 2, all 10 patients were dosed with placebo Once Daily. At Visit 3, subjects were randomly allocated so that 8 subjects were dosed with MDT-637 P3 Once Daily 66 mcg and 2 subjects received double blind placebo. At Visit 4, subjects were again randomly allocated so that 8 subjects were dosed with MDT-637 TID 132 mcg and 2 subjects received double blind placebo.
Pharmacokinetic variables (Cmax, Tmax, AUC, T1/2) were evaluated based on blood samples drawn at Visit 4.

[2] = human, in vivo; remark: listed apart in the source
Description: The study consisted of 3 visits: Visit 1 (Screening), Visit 2 (Dosing) and Visit 3 (Follow up); subjects furloughed from the clinic between Visits 2 and 3.
Both active and matched placebo were administered via face mask inhalation from a proprietary delivery system (MicroDose inhaler).
Single doses were administered in the morning. TID doses will be administered at 6 hour intervals, with the 1st of the 3 doses administered in the morning.
Pharmacokinetic variables (Cmax, Tmax, AUC, T1/2) were evaluated based on blood samples drawn at Visit 2.

RSV = conditions: background statement, cited from earlier work
[3] = human, in vivo; remark: listed apart in the source
Description: Subjects were enrolled in cohorts of 12 subjects. […] The study consisted of 3 visits: Visit 1 (Screening), Visit 2 (Dosing), Visit 3 (Follow up) and subjects remained at the study site for pharmacokinetic (PK) sampling, spirometry, and safety assessments. […] Day 1 was the first day of dosing and Day 10 was the final day of dosing, following which subjects remained at the study site for 24 hours following the last dose for PK sampling and spirometry. Visit 3 was a follow-up visit, 7 to 10 days after the last dose. Cohorts were dosed as follows:
The first doses for twice daily (BID) and three times daily (TID) were administered in the morning, starting at approximately 0700 hours on each day of dosing. BID doses were administered at 12 hour intervals and TID doses were administered at 6 hour intervals each dose day.
Pharmacokinetic endpoints (Cmax, Tmax, AUC, T1/2) and dose proportionality was assessed based on a limited number of plasma samples following the first dose on Day 1 and last dose on Day 10
Pharmacokinetic variables (Cmax, Tmax, AUC, T1/2) were evaluated based on blood samples drawn following first dose (Days 1-2) and last dose (Days 10-11).

physchem [4] = conditions: 37 °C, water, thermodynamic from solid
[5] = Description: The data are shown for: (a) non-hydrogenated DPPC (Sigma-Aldrich, USA) and (b) hydrogenated DPPC (Lipoid LLC, USA) surfactants at 0.02% w/v concentration. Each data point represents a triplicate sample obtained at temperature 37° C.
Time-dependent solubility study was carried out in simulated lung fluid (SLF) containing the surfactant dipalmitoylphosphatidylcholine (DPPC). The DPPC is a major surfactant present in the human lung.
Simulated lung fluid was prepared according to a method described by Moss et al. (Health Physics 1979, v36, 447-448).
A 0.1% DPPC in water solution was prepared according to a procedure published by Marques et al. (Dissolution Technologies, August 2011). The SLF solution modified with 0.02% DPPC was prepared by diluting the 0.1% DPPC solution with SLF. Refer to NB1181P59-60 for the details on the preparation procedure of SLF and SLF modified with 0.02% DPPC. Two types of DPPC were used in the study. The hydrogenated DPPC was supplied by Lipoid LLC (USA), while the non-hydrogenated DPPC was supplied by Sigma-Aldrich (catalogue # P0763-1G). […] In order to segregate the solid drug substance from the cloudy solution, a dialysis tube (Sigma-Aldrich catalogue # D9277-100FT) was used. A saturated solution of the drug substance in SLF modified with 0.02% DPPC was prepared and carefully transferred into the dialysis tube (˜10 mL in volume). […]

[6] = Slurry of equal mixture of six phases in 75/25 acetone-water (PXRD); format: physicochemical; conditions: 25° C., 12 days
Description: An equal powder mixture of six known phases (P-2, P-3, P-4, P-6, P-7 and P-8), 50 mg each were stirred in 75/25 acetone-water solvent (50 mL) at 25° C. over 12 days.

[7] = for Total Imp/Deg: listed as P224-135-2; for number of impurity peaks: listed as P-2
Description: Forced degradation experiments consisted of placing solid samples of P-2 hydrate and P-3 dihydrate materials in sealed glass bottles at 120° C. for 7 days.

[8] = 40° C./75% RH, 4 weeks
physchem [9] = assay: physchem
Description: Equilibrium solubility of different API forms in aqueous ethanol: This solubility was determined for P-2 and P-3 crystal forms using slurry equilibration and solution concentration measurement with HPLC.

[10] = Particle size of micronized material (Sympatec HELOS & RODOS); format: physicochemical
[11] = Thermodynamic relationship (hierarchy) of P-2 and P-3 crystal forms; format: physicochemical
Excerpt: FIG. 17 illustrates the thermodynamic relationship (hierarchy) of the P-2 and P-3 families of crystal forms.

[12] = Critical water activity by DVS sorption/desorption isotherms; format: physicochemical
Excerpt: The characteristic gravimetric loss of water is between 1-4.5% w/w.
The characteristic gravimetric loss of water for P-3 dihydrate is between 5.5-8.5% w/w. The profound difference of the DVS curves between the P-2 and P-3 forms can be utilized as a secondary technique for quantitative phase analysis of these forms.

[13] = Bulk powder density and flow indices (volumetric); format: physicochemical
[14] = Competitive slurry stability study between P-2 and P-3 (PXRD quantitative phase analysis); format: physicochemical; conditions: 50/50 acetonitrile/water, 25° C.
physchem [15] = conditions: 25 °C, organic solvent or mixture, thermodynamic from solid
[16] = Specific surface area (BET); format: physicochemical
[17] = remark: listed apart in the source
Excerpt: Four lots of MDT-637 API were micronized using a 2-inch spiral jet mill.

For `Cc1nnnn1/N=C/c1ccc(O)c(C(c2ccc(O)cc2)c2cc(/C=N/n3nnnc3C)ccc2O)c1` [MDT-637, phenol, 2,2′-[(4-hydroxyphenyl)methylene]bis[4-[[(5-methyl-1H-tetrazol-1-yl)imino]methyl]]], the “clinically significant changes in pulmonary function / pulmonary AEs” value [1] is listed as “no clinically significant changes in pulmonary function or reports of pulmonary adverse events”, the “clinically significant changes in labs, vital signs, ECGs, physical exams” value [2] is listed as “no clinically significant changes in pulmonary function, ECG, laboratory values vitals or physical examination” and the “potency relative to ribavirin” value (RSV) is listed as 40,000 times. The “reduction of RSV viral count” value (RSV; pre- and post-infection) was “effective in reducing RSV viral count both pre- and post-infection” and the “changes in pulmonary function / pulmonary AEs (serial spirometry)” value [3] was “no significant changes were observed in pulmonary function or reports of pulmonary adverse events”.
For `Cc1nnnn1/N=C/c1ccc(O)c(C(c2ccc(O)cc2)c2cc(/C=N/n3nnnc3C)ccc2O)c1` [P-2 hydrate, phenol, 2,2′-[(4-hydroxyphenyl)methylene]bis[4-[[(5-methyl-1H-tetrazol-1-yl)imino]methyl]]], the solubility (physchem [4]) was under 6 nM, the “factor by which solubility is lower than that of P-3 dihydrate” value [5] was 5 to 6 and the “form conversion / stability in six-phase slurry” value (from here on “form conversion / stability”) [6] was “most thermodynamically stable form”. The “Grand Total” value ([7]; 120C/7D) was 99.8 Area %, the “Total Imp/Deg” value ([7]; 120C/7D) was 0.76 Area % and the “Impurity/Degradation Product A” value ([7]; 7 days) was 0.07 Area %. For the same compound, the “Impurity/Degradation Product H” value ([7]; 7 days) was 0.40 Area %, the “Impurity/Degradation Product I” value ([7]; 7 days) was 0.07 Area % and the “Impurity/Degradation Product K” value ([7]; 7 days) was 0.16 Area %. For the same compound, the “Impurity/Degradation Product P” value ([7]; 7 days) was 0.06 Area %, the “Grand Total” value ([7]; CTRL) was 99.9 Area % and the “Total Imp/Deg” value ([7]; CTRL) was 0.67 Area %. The “number of impurity peaks” value ([7]; control) was 4 peaks, the “number of impurity peaks” value ([7]; stressed sample, 120° C. for 7 days) was 5 peaks and the Assay ([8]; open dish, listed as P-2) was 98.8%. For the same compound, the “Rel Subs” value ([8]; open dish, listed as P-2) was 0.68%, the Water ([8]; open dish, listed as P-2) was 3.5% and the “change of form / solid-state stability (DSC and PXRD)” value ([8]; open wide glass bottles) was “no change of form”. The chemical stability ([8]; open wide glass bottles) was “Acceptable chemical stability”, the equilibrium solubility (physchem [9]) was 416.5 µg/mL and the “Characteristic medium volume particle size (micronized)” value [10] was 1.1 μm. For the same compound, the thermodynamic stability ([11]; ambient conditions (15-37° C., 40-100% RH)) was “most stable crystal form”, the “critical water activity for transition between P-2 hydrate and anhydrous forms” value ([12]; 1% RH equilibration steps) was 30-40 % RH and the “Characteristic relative humidity of dehydration (20° C.)” value ([12]; 20° C.) was 30-40%. The Carr index [13] was 16.7%, the Hausner ratio [13] was 1.20 and the “Poured bulk powder density” value [13] was 0.16 g/mL. For the same compound, the “Tapped bulk powder density” value [13] was 0.19 g/mL, the “composition of slurry for P-2 hydrate” value ([14]; 4 days (50% at day 0)) was 77% and the “composition of slurry for P-2 hydrate” value ([14]; 10 days (50% at day 0)) was 85%. For the same compound, the solubility (physchem [15]) was 190 µg/mL, the Specific surface area [16] was 22.6 m^2/g and the “effect of micronization on crystallinity, phase purity, chemical degradation” value [17] was “did not affect the crystallinity, phase purity”.
For `Cc1nnnn1/N=C/c1ccc(O)c(C(c2ccc(O)cc2)c2cc(/C=N/n3nnnc3C)ccc2O)c1` [P-3 ethanolate, phenol, 2,2′-[(4-hydroxyphenyl)methylene]bis[4-[[(5-methyl-1H-tetrazol-1-yl)imino]methyl]]], the solubility thermodynamic (physchem [9]; organic solvent or mixture, thermodynamic from solid, equilibrium solubility) was 240 µg/mL (≈ 470 µM) and the thermodynamic stability ([11]; sufficient activity of ethanol, preferably above 0.3) was “most stable crystal form”.
With `Cc1nnnn1/N=C/c1ccc(O)c(C(c2ccc(O)cc2)c2cc(/C=N/n3nnnc3C)ccc2O)c1` [P-4, phenol, 2,2′-[(4-hydroxyphenyl)methylene]bis[4-[[(5-methyl-1H-tetrazol-1-yl)imino]methyl]]] the “form conversion / stability” value [6] was “convert to P-2 hydrate”.
In the case of `Cc1nnnn1/N=C/c1ccc(O)c(C(c2ccc(O)cc2)c2cc(/C=N/n3nnnc3C)ccc2O)c1` [P-6, phenol, 2,2′-[(4-hydroxyphenyl)methylene]bis[4-[[(5-methyl-1H-tetrazol-1-yl)imino]methyl]]], the “form conversion / stability” value [6] is reported as “convert to P-2 hydrate”.
For `Cc1nnnn1/N=C/c1ccc(O)c(C(c2ccc(O)cc2)c2cc(/C=N/n3nnnc3C)ccc2O)c1` [P-7, phenol, 2,2′-[(4-hydroxyphenyl)methylene]bis[4-[[(5-methyl-1H-tetrazol-1-yl)imino]methyl]]], the “form conversion / stability” value [6] was “convert to P-2 hydrate”.
With `Cc1nnnn1/N=C/c1ccc(O)c(C(c2ccc(O)cc2)c2cc(/C=N/n3nnnc3C)ccc2O)c1` [P-8, phenol, 2,2′-[(4-hydroxyphenyl)methylene]bis[4-[[(5-methyl-1H-tetrazol-1-yl)imino]methyl]]] the “form conversion / stability” value [6] was “convert to P-2 hydrate”.
